Measurements taken from patent publication US6737383B1, “Herbicidal oxadiazolidines” (priority 1999, dated 2004).

Tests used:
bedstraw = experiment: Test B pre/postemergence bedstraw; type: in vivo, Galium aparine
Procedure, shortened: (§1)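 Response is a visual 0-to-10 score relative to untreated plants, where 0 means no effect and 10 means complete control, taken twelve to sixteen days after application. Treatments went onto soil at planting and onto foliage of 1- to 4-leaf plants, using a surfactant-containing non-phytotoxic solvent.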

blackgrass = experiment: Test B pre/postemergence blackgrass; type: in vivo, Alopecurus myosuroides
Procedure, shortened: as §1

surinam grass = experiment: Test B pre/postemergence surinam grass; type: in vivo, Brachiaria decumbens
Procedure, shortened: as §1

cocklebur = experiment: Test B pre/postemergence cocklebur; type: in vivo, Xanthium strumarium
Procedure, shortened: as §1

corn = experiment: Test B pre/postemergence corn; type: in vivo, Zea mays
Procedure, shortened: as §1

crabgrass = experiment: Test B pre/postemergence crabgrass; type: in vivo, Digitaria sanguinalis
Procedure, shortened: as §1

rape = experiment: Test B pre/postemergence rape; type: in vivo, Brassica napus
Procedure, shortened: as §1

soybean = experiment: Test B pre/postemergence soybean; type: in vivo, Glycine max
Procedure, shortened: as §1

sugar beet = experiment: Test B pre/postemergence sugar beet; type: in vivo, Beta vulgaris; details: for Plant response rating, Sugarbeets: Rate 250 g/ha
Procedure, shortened: as §1

velvetleaf = experiment: Test B pre/postemergence velvetleaf; type: in vivo, Abutilon theophrasti; details: for Plant response rating, Velvetleaf: Rate 250 g/ha
Procedure, shortened: as §1

wheat = experiment: Test B pre/postemergence wheat; type: in vivo, Triticum aestivum; details: for Plant response rating, Wheat: Rate 250 g/ha
Procedure, shortened: as §1

wild oat = experiment: Test B pre/postemergence wild oat; type: in vivo, Avena fatua; details: for Plant response rating, Wild oats: Rate 250 g/ha
Procedure, shortened: as §1

purple nutsedge = experiment: Test B pre/postemergence purple nutsedge; type: in vivo, Cyperus rotundus
Procedure, shortened: as §1

rice = experiment: Test B flood test rice; type: in vivo, Oryza sativa
Procedure, shortened: (§2)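 Read-out is a visual response score from 0 (no effect) to 10 (complete control), assigned by comparison with untreated controls. Treatment was applied at the 2-leaf stage, and plants stayed in the greenhouse for twelve to sixteen days before scoring.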

smallflower flatsedge = experiment: Test B flood test smallflower flatsedge; type: in vivo, Cyperus difformis
Procedure, shortened: as §2

duck salad = experiment: Test B flood test duck salad; type: in vivo, Heteranthera limosa
Procedure, shortened: as §2

bamyardgrass = experiment: Test B flood test barnyardgrass; type: in vivo, Echinochloa crus-galli
Procedure, shortened: as §2

[1] = Postemergence, Rate 62 g/ha, scale 0 to 10, 0 is no effect, 10 is complete control
[2] = Postemergence, Rate 250 g/ha, scale 0 to 10, 0 no effect, 10 complete control
[3] = Preemergence, Rate 62 g/ha, scale 0 to 10 (0 no effect, 10 complete control)
[4] = Preemergence, Rate 125 g/ha, scale 0 to 10 (0 no effect, 10 complete control)
[5] = Preemergence, Rate 250 g/ha, scale of 0 to 10 where 0 is no effect and 10 is complete control
[6] = Preemergence, Rate 500 g/ha, scale 0 to 10 (0 no effect, 10 complete control)
[7] = Postemergence, Rate 125 g/ha, scale of 0 to 10 where 0 is no effect and 10 is complete control
[8] = Rate 62 g/ha, Postemergence, scale of 0 to 10 where 0 is no effect and 10 is complete control
[9] = Rate 500 g/ha, Postemergence, scale 0 to 10, 0 no effect, 10 complete control
[10] = Preemergence, Rate 125 g/ha, 0 is no effect, 10 is complete control
[11] = Preemergence, scale of 0 to 10 where 0 is no effect and 10 is complete control
[12] = Postemergence, scale 0 to 10, 0 is no effect, 10 is complete control
[13] = Postemergence (flood test species), Rate 125 g/ha, scale of 0 to 10 where 0 is no effect and 10 is complete control
[14] = Rate 62 g/ha, Postemergence section, flood test species, scale of 0 to 10 where 0 is no effect and 10 is complete control
[15] = Rate 250 g/ha, Postemergence (flood test), scale 0 to 10, 0 is no effect, 10 is complete control
[16] = Rate 500 g/ha, listed under Postemergence (flood test species), scale 0 to 10, 0 no effect, 10 complete control
[17] = flood test, listed under Postemergence, Rate 250 g/ha, scale 0 to 10, 0 no effect, 10 complete control

CC(C)N(C(=O)n1oc(=O)n(C2CCCCC2)c1=O)c1ccc(F)cc1 [Compound 110]
Bedstraw plant response rating (bedstraw; [1]): 2
Bedstraw plant response rating (bedstraw; [2]): 8
Bedstraw plant response rating (bedstraw; [3]): 0
Plant response rating, Bedstraw (bedstraw; [4]): 4
Plant response rating, Bedstraw (bedstraw; [5]): 5
Bedstraw plant response rating (bedstraw; [6]): 7
Blackgrass plant response rating (blackgrass; [7]): 4
Blackgrass plant response rating (blackgrass; [2]): 4
Blackgrass plant response rating (blackgrass; [3]): 0
Plant response rating, Blackgrass (blackgrass; [4]): 3
Plant response rating, Blackgrass (blackgrass; [5]): 7
Blackgrass plant response rating (blackgrass; [6]): 7
Blackgrass plant response rating (blackgrass; [8]): 1
Blackgrass plant response rating (blackgrass; [9]): 8
B. signalgrass plant response rating (surinam grass; [1]): 0
B. signalgrass plant response rating (surinam grass; [2]): 0
B. signalgrass plant response rating (surinam grass; [3]): 3
Plant response rating, B. signalgrass (surinam grass; [4]): 7
B. signalgrass plant response rating (surinam grass; [6]): 7
B. signalgrass plant response rating (surinam grass; Rate 125 g/ha, Postemergence, scale 0 to 10, 0 no effect, 10 complete control): 0
B. signalgrass plant response rating (surinam grass; Rate 500 g/ha, Postemergence, scale of 0 to 10 where 0 is no effect and 10 is complete control): 3
Cocklebur plant response rating (cocklebur; [7]): 2
Cocklebur plant response rating (cocklebur; [2]): 2
Cocklebur plant response rating (cocklebur; [3]): 0
Plant response rating, Cocklebur (cocklebur; [4]): 0
Plant response rating, Cocklebur (cocklebur; [5]): 0
Cocklebur plant response rating (cocklebur; [6]): 0
Cocklebur plant response rating (cocklebur; [8]): 0
Cocklebur plant response rating (cocklebur; [9]): 3
Corn plant response rating (corn; [7]): 0
Corn plant response rating (corn; [2]): 0
Corn plant response rating (corn; [3]): 2
Plant response rating, Corn (corn; [4]): 3
Plant response rating, Corn (corn; [5]): 4
Corn plant response rating (corn; [6]): 4
Corn plant response rating (corn; [8]): 0
Corn plant response rating (corn; [9]): 4
Crabgrass plant response rating (crabgrass; [7]): 3
Crabgrass plant response rating (crabgrass; [2]): 3
Crabgrass plant response rating (crabgrass; [3]): 3
Plant response rating, Crabgrass (crabgrass; [4]): 3
Plant response rating, Crabgrass (crabgrass; [5]): 9
Crabgrass plant response rating (crabgrass; [6]): 10
Crabgrass plant response rating (crabgrass; [8]): 2
Crabgrass plant response rating (crabgrass; [9]): 8
Rape plant response rating (rape; [7]): 4
Rape plant response rating (rape; [2]): 4
Rape plant response rating (rape; [3]): 0
Plant response rating, Rape (rape; [4]): 1
Plant response rating, Rape (rape; [5]): 4
Rape plant response rating (rape; [6]): 8
Rape plant response rating (rape; [8]): 2
Rape plant response rating (rape; [9]): 6
Soybean plant response rating (soybean; [7]): 3
Soybean plant response rating (soybean; [3]): 1
Plant response rating, Soybean (soybean; [4]): 5
Plant response rating, Soybean (soybean; [5]): 5
Soybean plant response rating (soybean; [6]): 6
Soybean plant response rating (soybean; [8]): 3
Plant response rating, Soybean (soybean; Rate 250 g/ha, Postemergence, scale 0 to 10, 0 is no effect, 10 is complete control): 5
Soybean plant response rating (soybean; [9]): 7
Sugarbeets plant response rating (sugar beet; [7]): 3
Sugarbeets plant response rating (sugar beet; [3]): 0
Sugarbeets plant response rating (0 to 10 scale) (sugar beet; [10]): 1
Plant response rating, Sugarbeets (sugar beet; [11]): 2
Sugarbeets plant response rating (sugar beet; [6]): 5
Sugarbeets plant response rating (sugar beet; [8]): 0
Plant response rating, Sugarbeets (sugar beet; [12]): 3
Sugarbeets plant response rating (sugar beet; [9]): 3
Velvetleaf plant response rating (velvetleaf; [7]): 0
Velvetleaf plant response rating (velvetleaf; [3]): 0
Velvetleaf plant response rating (0 to 10 scale) (velvetleaf; [10]): 5
Plant response rating, Velvetleaf (velvetleaf; [11]): 5
Velvetleaf plant response rating (velvetleaf; [6]): 7
Velvetleaf plant response rating (velvetleaf; [8]): 0
Plant response rating, Velvetleaf (velvetleaf; [12]): 1
Velvetleaf plant response rating (velvetleaf; [9]): 2
Wheat plant response rating (wheat; [7]): 0
Wheat plant response rating (wheat; [3]): 0
Wheat plant response rating (0 to 10 scale) (wheat; [10]): 0
Plant response rating, Wheat (wheat; [11]): 0
Wheat plant response rating (wheat; [6]): 3
Wheat plant response rating (wheat; [8]): 0
Plant response rating, Wheat (wheat; [12]): 0
Wheat plant response rating (wheat; [9]): 1
Wild oats plant response rating (wild oat; [7]): 0
Wild oats plant response rating (wild oat; [3]): 0
Wild oats plant response rating (0 to 10 scale) (wild oat; [10]): 3
Plant response rating, Wild oats (wild oat; [11]): 5
Wild oats plant response rating (wild oat; [6]): 5
Wild oats plant response rating (wild oat; [8]): 0
Plant response rating, Wild oats (wild oat; [12]): 0
Wild oats plant response rating (wild oat; [9]): 2
Nutsedge plant response rating (purple nutsedge; [7]): 0
Nutsedge plant response rating (purple nutsedge; [2]): 0
Nutsedge plant response rating (purple nutsedge; [3]): 0
Plant response rating, Nutsedge (purple nutsedge; [4]): 0
Plant response rating, Nutsedge (purple nutsedge; [5]): 0
Nutsedge plant response rating (purple nutsedge; [6]): 0
Nutsedge plant response rating (purple nutsedge; [8]): 0
Nutsedge plant response rating (purple nutsedge; [9]): 0
Rice plant response rating (rice; [13]): 0
Rice plant response rating (rice; [14]): 0
Plant response rating, Rice (rice; [15]): 0
Rice plant response rating (rice; [16]): 0
S. Flatsedge plant response rating (smallflower flatsedge; [13]): 0
S. Flatsedge plant response rating (smallflower flatsedge; [14]): 0
Plant response rating, S. Flatsedge (smallflower flatsedge; [15]): 0
S. Flatsedge plant response rating (smallflower flatsedge; [16]): 0
Ducksalad plant response rating (duck salad; [13]): 0
Ducksalad plant response rating (duck salad; [14]): 0
Ducksalad plant response rating (duck salad; [16]): 0
Ducksalad plant response rating (duck salad; [17]): 0
Barnyardgrass plant response rating (bamyardgrass; [1]): 0
Barnyardgrass plant response rating (bamyardgrass; Rate 125 g/ha, Postemergence section (flood test species), scale 0 to 10, 0 no effect, 10 complete control): 0
Barnyardgrass plant response rating (bamyardgrass; [16]): 0
Barnyardgrass plant response rating (bamyardgrass; [17]): 0
